From PMC11988454, “Discovery of synthetic small molecules targeting the central regulator of Salmonella pathogenicity” (Science Advances, 2025)
pIC50: −log10 of the molar value. Values joined by “and” are separate entries in the source; they are usually repeats but may differ in a detail not shown here. Equal values may be shown once.

How the values were obtained:
[1] = target: T1, HilC (Salmonella typhimurium, UniProt E1WAB2); experiment: nanoDSF thermal stability, HilC; format: binding, S. Typhimurium
T1 construct: His6 followed by TEV protease cleavage site (N, cleaved yes); made in house; host or cells: E. coli C41(DE3)
T1 sequence (E1WAB2 whole entry): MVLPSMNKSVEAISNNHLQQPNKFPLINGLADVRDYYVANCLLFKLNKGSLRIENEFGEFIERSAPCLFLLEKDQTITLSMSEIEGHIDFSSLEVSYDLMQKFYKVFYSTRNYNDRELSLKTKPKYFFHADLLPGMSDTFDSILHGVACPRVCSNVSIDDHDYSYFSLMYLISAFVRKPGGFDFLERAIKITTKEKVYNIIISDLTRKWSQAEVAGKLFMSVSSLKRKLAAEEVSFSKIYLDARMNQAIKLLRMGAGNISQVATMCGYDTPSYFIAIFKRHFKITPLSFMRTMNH
Description: Thermal stability of proteins was determined using nanoDSF, with runs performed on a Prometheus NT.48 (NanoTemper Technologies). A twofold serial dilution series of C26 was prepared in DMSO. C26 was added to HilD or HilC (5 μM) in SEC buffer, giving a final DMSO concentration of 1% (v/v). Samples were incubated for >20 min at r.t. and centrifuged for 2 min prior to loading of standard capillaries (no. PR-C002). Samples were heated from 20° to 80°C with a temperature gradient of 0.5°C min^−1. Melting temperatures were calculated from changes in the fluorescence ratio (350/330 nm), using PR.Stability Analysis v1.0.3 and a temperature range of 40° to 70°C for curve fitting. Data analysis was performed using Prism 8.4 (GraphPad). The change in HilD melting temperature, Tm, was fitted as a function of ligand concentration, using Eqs. 1 and 2 to yield apparent affinity (Kd,app) values Tm{[L]0}=Tm,lower+(Tm,upper−Tm,lower)*(1−α{[L]0}) (1) α{[L]0}=[P]t−Kd−[L]t+{[P]t+[L]t+Kd,app}^2−{4[P]t[L]t}/2[P]t (2) where [P]t and [L]t are the total protein and ligand concentrations, respectively.

[2] = test system: T3SS-1 (SipA secretion); experiment: SipA-NLuc secretion assay (NanoLuc luciferase); format: cell-based, S. Typhimurium; settings: Salmonella enterica, read-out: IC50 SipA secretion
Description: (A) NanoLuc Luciferase assay to screen T3SS-1 inhibitors in 384-well plates. Compounds were screened at a final concentration of 100 μM (N = 3 replicates). Cultures with strains sipA-NLuc and ΔinvA, sipA-NLuc with 1% (v/v) DMSO were used as positive and negative controls, respectively. […] 100% relative SipA secretion corresponds to the luminescence intensity of the WT strain grown in the presence of 1% (v/v) DMSO. The relative SipA secretion of the ∆invA mutant was considered as the bottom (N = 2 technical replicates within N = 3 biological replicates).
For compound screening, 50 μl of overnight cultures of Salmonella with an approximate optical density at 600 nm (OD600) of 2 were diluted in fresh LB medium to an OD600 of 0.05 and added to 384-well plates (Nunc MaxiSorp, white) containing 5 nmol of screening compound per well, for a final compound concentration of 100 μM. The plates were incubated for 5 hours at 37°C with shaking at 180 rpm, upon which the bacteria were removed. The plates were washed with phosphate-buffered saline (PBS) [137 mM NaCl, 2.7 mM KCl, 10 mM Na2HPO4, and 1.8 mM KH2PO4 (pH 7.4)] using a Tecan HydroSpeed plate washer. Residual PBS after washing was removed, and 50 μl of NanoLuc working solution (NanoGlo, Promega) was added to the wells. Luminescence was then measured using a Tecan Sparc Multimode reader. […]

[3] = test system: S. Typhimurium invasion of HeLa cells; experiment: Invasion assay into HeLa cells; format: cell-based; settings: C26 100 μM, MOI 20
Description: In a white 24-well plate (NUNC), 10^5 HeLa cells were seeded in 350 μl of DMEM (Gibco), 24 hours before the infection. Bacteria were grown in LB supplemented with 0.3 M NaCl and either compound at different concentrations or 1% (v/v) DMSO, at 37°C with shaking at 180 rpm until an OD600 of 0.9 was reached. Bacteria were then pelleted and washed twice with HBSS. The bacterial suspension was diluted to obtain an MOI of 20 to infect HeLa cells. The plate was centrifuged for 5 min at 300g to synchronize the infection and then incubated for 25 min at 37°C and 5% (v/v) CO2 to allow Salmonella invasion into HeLa cells. To quantify the invasiveness, the cells were first washed three times with 500 μl of prewarmed PBS. The remaining extracellular bacteria were killed with 500 μl of DMEM supplemented with gentamicin (100 μg/ml). HeLa cells were incubated for 1 hour and then washed three times with prewarmed PBS and lysed with 500 μl of 0.5% (v/v) SDS in PBS for 5 min at 37°C on a shaking platform. The lysate was serial diluted in PBS-T [PBS with 0.05% (v/v) Tween 20] to determine the colony-forming units (CFUs) by plating on LB medium supplemented with streptomycin (50 μg/ml).

[4] = test system: SPI-encoded genes; format: cell-based, S. Typhimurium
Description: Salmonella was grown for 5 hours at 37°C in LB medium in the presence of 100 μM C26 or 1% (v/v) DMSO as a control. After growth, bacteria were harvested by centrifugation, and total RNA was isolated using the Qiagen RNeasy mini kit according to the manufacturer’s protocol. RNA-seq was performed on a HiSeq2500 with a 2 x 125–base pair paired-end read protocol. The Illumina Casava software was used to demultiplex the sequenced reads providing individual raw fastq sample files. Raw fastq files were prefiltered using the chastity filter to remove reads that contain a “Y” flag. FastQC (https://www.bioinformatics.babraham.ac.uk/projects/fastqc/, version v0.11.4) was used to determine the quality of the resulting fastq files. Subsequently, an adapter trimming/removal step was conducted with Cutadapt (https://pypi.python.org/pypi/cutadapt/, version 1.8.3). […] TopHat2 (https://ccb.jhu.edu/software/tophat/index.shtml, version v2.0.12) was used as aligner to map the remaining quality controlled reads to the Salmonella genome. Read counting to features (e.g., genes or exons) in the genome was performed with HTSeq-count (https://htseq.readthedocs.io/en/master/htseqcount.html, version 0.6.0.). Counting was performed using “union” mode on the feature “gene.” The stranded option was also set to “–stranded=no” to indicate to count features on both strands. Furthermore, the -r parameter from HTSeq was set to “pos” as this is the default of the output of TopHat’s “accepted_hits.bam” mapping file. For differential expression analysis, the raw read count table resulting from HTSeq counting is used and fed into the R package DESeq2 (version 1.10.1). Graphs were also produced in the R language (R version 3.2.1) mainly using the R package ggplot2 (version 2.2.0). Reports were produced using the R package rmarkdown (version 1.3).

[5] = C26 100 μM vs DMSO, single replicates (Fig 2E)
[6] = C26 100 μM, size of the down-regulation given without sign

Compound: CN(CC(=O)NCc1ccc2c(c1)OCO2)Cc1ccc(Br)s1 [C26, N-(benzo[d][1,3]dioxol-5-ylmethyl)-2-{[(5-bromothiophen-2-yl)methyl](methyl)amino}acetamide]
- thermal stability of HilC [1]: no effect on the thermal stability
- pIC50 [2]: 4.53
- invasiveness of HilDY46A mutant into HeLa cells [3]: unaffected
- Invasion of HeLa cells (%), of the original inoculum ([3]; DMSO control 11.75): 3.5%
- Log2 Fold change STM0972 [4, 5]: -1.019 and -1.567 and -1.468
- Log2 Fold change STM05625 [4, 5]: -1.06 and -1.782 and -1.1981
- Log2 Fold change avrA [4, 5]: -1.134 and -2.023 and -1.399
- Log2 Fold change hilA [4, 5]: -3.571 and -4.424 and -3.961
- Log2 Fold change hilC [4, 5]: -2.8 and -3.816 and -2.688
- Log2 Fold change hilD [4, 5]: -1.794 and -2.09 and -1.995
- Log2 Fold change iacP [4, 5]: -2.394 and -3.567 and -2.412
- Log2 Fold change iagB [4, 5]: -3.642 and -4.006 and -3.534
- Log2 Fold change invA [4, 5]: -3.221 and -3.81 and -3.166
- Log2 Fold change invB [4, 5]: -2.867 and -3.637 and -3.183
- Log2 Fold change invC [4, 5]: -2.536 and -3.183 and -2.8784
- Log2 Fold change invE [4, 5]: -3.292 and -4.06 and -3.2144
- Log2 Fold change invF [4, 5]: -3.621 and -4.389 and -3.592
- Log2 Fold change invG [4, 5]: -3.834 and -4.335 and -3.589
- Log2 Fold change invH [4, 5]: -3.135 and -3.596 and -3.2198
- Log2 Fold change invI [4, 5]: -3.283 and -3.556 and -3.358
- Log2 Fold change orgA [4, 5]: -1.913 and -2.484 and -2.0655
- Log2 Fold change orgB [4, 5]: -1.03 and -1.516 and -1.313
- Log2 Fold change orgC [4, 5]: -0.8446 and -1.317 and -1.218
- Log2 Fold change pagC [4, 5]: -0.9557 and -1.642 and -1.303
- Log2 Fold change pipB [4, 5]: -1.346 and -1.626 and -1.791
- Log2 Fold change prgH [4, 5]: -2.242 and -3.146 and -2.589
- Log2 Fold change prgI [4, 5]: -2.528 and -3.17 and -2.85
- Log2 Fold change prgJ [4, 5]: -2.351 and -3.201 and -2.717
- Log2 Fold change prgK [4, 5]: -2.159 and -2.912 and -2.508
- Log2 Fold change rtsA [4, 5]: -3.522 and -4.691 and -3.546
- Log2 Fold change sicA [4, 5]: -2.525 and -3.5667 and -2.5609
- Log2 Fold change sicP [4, 5]: -1.008 and -1.8772 and -1.275
- Log2 Fold change sifB [4, 5]: -1.447 and -2.07 and -1.848
- Log2 Fold change sipA [4, 5]: -2.154 and -3.4073 and -2.1103
- Log2 Fold change sipB [4, 5]: -2.364 and -3.5554 and -2.316
- Log2 Fold change sipC [4, 5]: -2.344 and -3.615 and -2.313
- Log2 Fold change sipD [4, 5]: -2.421 and -3.506 and -2.2134
- Log2 Fold change sopB [4, 5]: -1.308 and -2.976 and -1.42
- Log2 Fold change sopD [4, 5]: -1.407 and -0.6715 and -1.948
- Log2 Fold change sopE2 [4, 5]: -1.5 and -2.647 and -1.472
- Log2 Fold change spaN [4, 5]: -2.873 and -3.527 and -3.123
- Log2 Fold change spaO [4, 5]: -2.648 and -3.446 and -2.941
- Log2 Fold change spaP [4, 5]: -2.823 and -3.907 and -2.993
- Log2 Fold change spaQ [4, 5]: -3 and -2.087 and -2.907
- Log2 Fold change spaR [4, 5]: -1.963 and -4.022 and -1.926
- Log2 Fold change spaS [4, 5]: -2.051 and -2.854 and -2.155
- Log2 Fold change sprB [4, 5]: -2.031 and -3.538 and -1.986
- Log2 Fold change ssaG [4, 5]: -1.637 and -2.322 and -2.8413
- log2 fold change expression RtsA [4, 6]: 3.82
- log2 fold change expression hilA [4, 6]: 3.94
- log2 fold change expression hilC [4, 6]: 3.02
- log2 fold change expression hilD [4, 6]: 1.95
